Values joined by “and” are separate entries in the source; they are usually repeats but may differ in a detail not shown here. Equal entries are not always repeated.
Key:
Thromboxane A2 receptor [1] = biological target: T1, Thromboxane A2 receptor (Rattus norvegicus, UniProt P34978); test: In vitro thromboxane A2 receptor antagonism through inhibition of U-46619-induced contraction of rat isolated thoracic aortic strip; format: functional; conditions: read-out: pA2 (converted)
T1 sequence (P34978 whole entry): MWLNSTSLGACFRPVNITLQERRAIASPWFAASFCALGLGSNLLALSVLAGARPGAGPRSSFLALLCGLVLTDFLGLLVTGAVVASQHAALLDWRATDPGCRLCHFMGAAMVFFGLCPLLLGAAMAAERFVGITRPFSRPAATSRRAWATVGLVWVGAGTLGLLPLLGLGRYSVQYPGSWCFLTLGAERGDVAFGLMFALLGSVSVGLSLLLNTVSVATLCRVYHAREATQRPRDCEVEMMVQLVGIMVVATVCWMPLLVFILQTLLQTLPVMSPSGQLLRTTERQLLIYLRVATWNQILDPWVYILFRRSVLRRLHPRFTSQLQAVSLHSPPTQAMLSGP

Thromboxane A2 receptor [2] = biological target: T2, Thromboxane A2 receptor (Homo sapiens, UniProt P21731); test: In vitro thromboxane A2 receptor antagonism through inhibition of U-46619-induced platelet aggregation in human whole blood; format: functional, tissue-based; conditions: read-out: pA2 (converted)
T2 sequence (P21731 whole entry): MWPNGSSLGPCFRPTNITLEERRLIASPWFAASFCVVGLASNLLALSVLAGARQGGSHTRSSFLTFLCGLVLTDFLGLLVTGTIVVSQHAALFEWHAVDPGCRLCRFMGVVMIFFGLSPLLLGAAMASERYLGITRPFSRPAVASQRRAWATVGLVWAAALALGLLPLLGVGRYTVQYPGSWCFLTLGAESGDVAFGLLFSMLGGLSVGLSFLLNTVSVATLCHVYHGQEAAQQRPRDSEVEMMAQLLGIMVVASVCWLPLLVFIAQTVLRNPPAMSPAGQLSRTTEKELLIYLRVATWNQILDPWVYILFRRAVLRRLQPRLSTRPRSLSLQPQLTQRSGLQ

[3] = biological target: T3, Thromboxane A2 receptor (Rattus norvegicus) (UniProt P34978); test: In vitro thromboxane receptor antagonism through inhibition of U-46619-induced contraction of rat isolated thoracic aortic strip; format: functional
T3 sequence (whole entry): T1 sequence (P34978 whole entry)

Kb (Thromboxane A2 receptor [1])	Kb (Thromboxane A2 receptor [2])	pKb [3]	SMILES
0.0126 µM	0.00794 µM		CNS(=O)(=O)Cc1ccccc1-c1ccc(COC2CC[C@H](N3CCCCCC3)[C@H]2OC/C=C\CCC(=O)O)cc1 (stereo not given in full)
0.0126 µM	0.00158 µM		O=C(O)CC/C=C\CO[C@H]1[C@@H](OCc2ccc(-c3ccccc3CO)cc2)CC[C@@H]1N1CCCCCC1
	0.0631 µM and 0.0158 µM		O=C(O)CC/C=C\CO[C@H]1C(OCc2ccc(-c3ccccc3)cc2)CC[C@@H]1N1CCCCC1 (stereo not given in full)
0.158 µM	0.00794 µM		NC(=O)Cc1ccccc1-c1ccc(COC2CC[C@H](N3CCCCCC3)[C@H]2OC/C=C\CCC(=O)O)cc1 (stereo not given in full)
0.02 µM	0.00316 µM		NC(=O)c1ccc(-c2ccc(COC3CC[C@H](N4CCCCCC4)[C@H]3OC/C=C\CCC(=O)O)cc2)cc1 (stereo not given in full)
0.00398 µM	0.01 µM		CS(=O)(=O)Nc1ccccc1-c1ccc(COC2CC[C@H](N3CCCCCC3)[C@H]2OC/C=C\CCC(=O)O)cc1 (stereo not given in full)
	0.00631 µM	8.5	O=C(O)CC/C=C\CO[C@H]1[C@H](OCc2ccc(-c3ccccc3CO)cc2)CC[C@@H]1N1CCCCCC1
0.0501 µM	0.0126 µM		CS(=O)(=O)Nc1cccc(-c2ccc(COC3CC[C@H](N4CCCCCC4)[C@H]3OC/C=C\CCC(=O)O)cc2)c1 (stereo not given in full)
0.0794 µM	0.00501 µM		O=C(O)CC/C=C\CO[C@H]1[C@@H](OCc2ccc(-c3cccc(CO)c3)cc2)CC[C@@H]1N1CCCCCC1
0.0251 µM	0.0126 µM		O=C(O)CC/C=C\CO[C@H]1C(OCc2ccc(-c3ccccc3)cc2)CC[C@@H]1N1CCCCCC1 (stereo not given in full)
0.02 µM	0.00398 µM		NC(=O)Cc1ccc(-c2ccc(COC3CC[C@H](N4CCCCCC4)[C@H]3OC/C=C\CCC(=O)O)cc2)cc1 (stereo not given in full)
0.0316 µM and 0.0501 µM	0.01 µM and 0.00794 µM		O=C(O)CC/C=C\CO[C@H]1[C@@H](OCc2ccc(-c3ccccc3)cc2)CC[C@@H]1N1CCCCC1
0.02 µM	0.0158 µM		O=C(O)CC/C=C\CO[C@H]1C(OCc2ccc(-c3ccccc3O)cc2)CC[C@@H]1N1CCCCCC1 (stereo not given in full)
0.0631 µM	0.00631 µM		CS(=O)(=O)Nc1ccccc1-c1ccc(CO[C@H]2CC[C@H](N3CCCCCC3)[C@H]2OC/C=C\CCC(=O)O)cc1
0.0316 µM	0.002 µM		O=C(O)CC/C=C\CO[C@H]1C(OCc2ccc(-c3ccccc3CCO)cc2)CC[C@@H]1N1CCCCCC1 (stereo not given in full)
0.0126 µM	0.00794 µM		O=C(O)CC/C=C\CO[C@H]1C(OCc2ccc(-c3cccc(CO)c3)cc2)CC[C@@H]1N1CCCCCC1 (stereo not given in full)
0.0631 µM	0.00794 µM		NC(=O)Nc1ccccc1-c1ccc(COC2CC[C@H](N3CCCCCC3)[C@H]2OC/C=C\CCC(=O)O)cc1 (stereo not given in full)
0.0158 µM	0.00316 µM		CNS(=O)(=O)Cc1ccc(-c2ccc(COC3CC[C@H](N4CCCCCC4)[C@H]3OC/C=C\CCC(=O)O)cc2)cc1 (stereo not given in full)
0.00631 µM	0.00316 µM		O=C(O)CC/C=C\CO[C@H]1C(OCc2ccc(-c3ccccc3CO)cc2)CC[C@@H]1N1CCCCCC1 (stereo not given in full)
0.00631 µM	0.00631 µM		O=C(O)CC/C=C\CO[C@H]1C(OCc2ccc(-c3ccc(O)cc3)cc2)CC[C@@H]1N1CCCCCC1 (stereo not given in full)
1 µM	0.1 µM		O=C(O)CC/C=C\CO[C@@H]1[C@@H](OCc2ccc(-c3ccccc3)cc2)CC[C@@H]1N1CCCCC1
0.126 µM	0.0251 µM		CC(=O)NCc1ccccc1-c1ccc(COC2CC[C@H](N3CCCCCC3)[C@H]2OC/C=C\CCC(=O)O)cc1 (stereo not given in full)
0.0501 µM	0.00398 µM		O=C(O)CC/C=C\CO[C@H]1[C@@H](OCc2ccc(-c3ccc(CO)cc3)cc2)CC[C@@H]1N1CCCCCC1
0.02 µM	0.00251 µM		CC(=O)NCc1ccc(-c2ccc(COC3CC[C@H](N4CCCCCC4)[C@H]3OC/C=C\CCC(=O)O)cc2)cc1 (stereo not given in full)
0.0158 µM	0.0158 µM		NC(=O)c1ccccc1-c1ccc(COC2CC[C@H](N3CCCCCC3)[C@H]2OC/C=C\CCC(=O)O)cc1 (stereo not given in full)
0.02 µM	0.00316 µM		O=C(O)CC/C=C\CO[C@H]1C(OCc2ccc(-c3ccc(CO)cc3)cc2)CC[C@@H]1N1CCCCCC1 (stereo not given in full)
0.0158 µM	0.0398 µM		O=C(O)CC/C=C\CO[C@@H]1C(OCc2ccc(-c3ccccc3)cc2)CC[C@@H]1N1CCCCC1 (stereo not given in full)
0.0398 µM	0.00501 µM		O=C(O)CC/C=C\CO[C@H]1[C@@H](OCc2ccc(-c3ccccc3)cc2)CC[C@@H]1N1CCCCCC1

Source: ChEMBL document CHEMBL1125965, “Synthesis and pharmacological evaluation of novel Amino-prostanoids: potent and orally effective thromboxane A2 receptor antagonists” (Bioorg Med Chem Lett, 1991)
